What all share (type): in vivo
Data set [1] concerns Green Peach Aphid (Myzus persicae). Description: Bioassays on Green Peach Aphid, foliar spray on cabbage seedlings. Conditions: 72 h, 200 ppm spray on cabbage seedlings, three days, Abbott corrected % control, read-out: GPA % Control (or Mortality) rating. On the procedure:
Cabbage seedlings grown in 3-inch pots, with 2-3 small (3-5 cm) true leaves, were used as test substrate. The seedlings were infested with 20-50 GPA (wingless adult and nymph stages) one day prior to chemical application. Four pots with individual seedlings were used for each treatment. Test molecules (2 mg) were dissolved in 2 mL of acetone/methanol (1:1) solvent, forming stock solutions of 1000 ppm test molecule. The stock solutions were diluted 5× with 0.025% Tween 20 in water to obtain the solution at 200 ppm test molecule. A hand-held aspirator-type sprayer was used for spraying a solution to both sides of […] leaves until runoff. Reference plants (solvent check) were sprayed with the diluent only containing 20% by volume of acetone/methanol (1:1) solvent. Treated plants were held in a holding room for three days at approximately 25° C. and ambient relative humidity (RH) prior to grading. Evaluation was conducted by counting the number of live aphids per plant under a microscope. Percent Control was measured by using Abbott's correction formula (W. S. Abbott, “A Method of Computing the Effectiveness of an Insecticide” J. Econ. Entomol. 18 (1925), pp. 265-267) as follows.
Corrected % Control=100*(X−Y)/X • where • X=No. of live aphids on solvent check plants and • Y=No. of live aphids on treated plants

Data set [2] relates to Cabbage Looper (Trichoplusia ni). Description: Bioassays on CL, 128-well diet tray assay. Conditions: Trichoplusia ni; for mortality at 50 µg/cm2: 168 h, 50 μg/cm^2 on artificial diet, second instar larvae, five to seven days, read-out: CL % Control (or Mortality) rating. The procedure, abridged: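 Test molecule at 50 μg/cm^2 applied to the artificial diet surface (acetone-water) and dried; one to five second-instar T. ni larvae per well, eight wells per treatment, held at 25° C., 14:10 light-dark for five to seven days. Percent mortality averaged over wells.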

Data set [3] concerns Yellow Fever Mosquito (Aedes aegypti). In words: Bioassays on Yellow Fever Mosquito larvae, 96-well plate. The following applies: from 4000 ppm DMSO master plate, about 1 day-old larvae, 3 days. The method, boiled down:
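Aedes aegypti larvae about 1 day old, in water with liver powder, exposed in 96-well plates to compounds from a 4000 ppm DMSO master solution diluted in 90:10 water:acetone. Plates covered and held at room temperature for 3 days, then each well scored for mortality; 6 replicate plates.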

Data set [4] deals with Beet Armyworm (Spodoptera exigua). In words: Bioassays on BAW, 128-well diet tray assay. Conditions: Spodoptera exigua; for mortality at 50 µg/cm2: 168 h, 50 μg/cm^2 on artificial diet, second instar larvae, five to seven days, read-out: BAW % Control (or Mortality) rating.

Six molecules from US20170210723A1, “MOLECULES HAVING PESTICIDAL UTILITY, AND INTERMEDIATES, COMPOSITIONS, AND PROCESSES, RELATED THERETO” (priority 2016, published 2017) can be followed below.

On to `C[C@H](C[S+]([O-])CC(F)(F)F)NC(=O)c1ccc(/C=C/C(c2cc(Cl)c(F)c(Cl)c2)C(F)(F)F)cc1Br` (stereo partly drawn) [F49, 2-Bromo-4-((E)-3-(3,5-dichloro-4-fluorophenyl)-4,4,4-trifluorobut-1-en-1-yl)-N-((2R)-1-((2,2,2-trifluoroethyl)sulfinyl)propan-2-yl)benzamide], for which the mortality at 200 ppm in data set [1] is 0%. For the same molecule, the mortality at 50 µg/cm2 in data set [2] and in data set [4] was 50 to 100% in each case. Moreover, the “YFM % Control (or Mortality) rating” value in data set [3] is “A (80-100)”.

On to `C[C@H](CSCC(F)(F)F)NC(=O)c1ccc(/C=C/C(c2cc(Br)cc(Br)c2)C(F)(F)F)cc1C(F)(F)F` (stereo partly drawn) [F56, 4-((E)-3-(3,5-Dibromophenyl)-4,4,4-trifluorobut-1-en-1-yl)-N—((R)-1-((2,2,2-trifluoroethyl)thio)propan-2-yl)-2-(trifluoromethyl)benzamide], for which, in data set [1], the mortality at 200 ppm came out at 0%. Moreover, the mortality at 50 µg/cm2 in data set [2] and in data set [4] was 50 to 100% in each case. Further, the “YFM % Control (or Mortality) rating” value in data set [3] is given as “A (80-100)”.

In the case of `C[C@H](CS(=O)(=O)CC(F)(F)F)NC(=O)c1ccc(/C=C/C(c2cc(Cl)c(Cl)c(Cl)c2)C(F)(F)F)cc1Cl` (stereo partly drawn) [F58, 2-Chloro-4-((E)-4,4,4-trifluoro-3-(3,4,5-trichlorophenyl)but-1-en-1-yl)-N—((R)-1-((2,2,2-trifluoroethyl)sulfonyl)propan-2-yl)benzamide], in data set [1], the mortality at 200 ppm is 0%. In addition, the mortality at 50 µg/cm2 in data set [2] and in data set [4] was 50 to 100% in each case. Besides, the mortality at 0.05 µg/cm2 in data set [2] (0.05 μg/cm^2, read-out: CL Percent control (or mortality)) came to 100%; in data set [4] (0.05 μg/cm^2, read-out: BAW Percent control (or mortality)), 100%. The mortality at 0.5 µg/cm2 in data set [2] (0.5 μg/cm^2, read-out: CL Percent control (or mortality)) is 100%; in data set [4] (0.5 μg/cm^2, read-out: BAW Percent control (or mortality)), 100%. Moreover, the mortality at 5 µg/cm2 came to 100% in data set [2] (5 μg/cm^2, read-out: CL Percent control (or mortality)) and 100% in data set [4] (5 μg/cm^2, read-out: BAW Percent control (or mortality)). The “YFM % Control (or Mortality) rating” value in data set [3] is listed as “A (80-100)”.

Turning to `CCS(=O)(=O)C[C@@H](C)NC(=O)c1ccc(/C=C/C(c2cc(Cl)c(Cl)c(Cl)c2)C(F)(F)F)cc1C(F)(F)F` (stereo partly drawn) [F68, N—((R)-1-(Ethylsulfonyl)propan-2-yl)-4-((E)-4,4,4-trifluoro-3-(3,4,5-trichlorophenyl)but-1-en-1-yl)-2-(trifluoromethyl)benzamide], the mortality at 200 ppm in data set [1] is 0 to 80%. Further, the mortality at 50 µg/cm2 in data set [2] and in data set [4] was 50 to 100% in each case. Also, in data set [3], the “YFM % Control (or Mortality) rating” value was “A (80-100)”.

With `CCC[S+]([O-])C[C@@H](C)NC(=O)c1ccc(/C=C/C(c2cc(Cl)c(Cl)c(Cl)c2)C(F)(F)F)cc1C(F)(F)F` (stereo partly drawn) [F111, N-((2R)-1-(Propylsulfinyl)propan-2-yl)-4-((E)-4,4,4-trifluoro-3-(3,4,5-trichlorophenyl)but-1-en-1-yl)-2-(trifluoromethyl)benzamide], the mortality at 200 ppm in data set [1] fell in the range of 0 to 80%. In addition, the mortality at 50 µg/cm2 in data set [2] and in data set [4] was 50 to 100% throughout. For the same molecule, in data set [3], the “YFM % Control (or Mortality) rating” value is “A (80-100)”.

On to `C[C@H](CSCCF)NC(=O)c1ccc(/C=C/C(c2cc(Cl)c(Cl)c(Cl)c2)C(C)(F)F)cc1C(F)(F)F` (stereo partly drawn) [F119, 4-((E)-4,4-Difluoro-3-(3,4,5-trichlorophenyl)pent-1-en-1-yl)-N—((R)-1-((2-fluoroethyl)thio)propan-2-yl)-2-(trifluoromethyl)benzamide], for which the mortality at 200 ppm in data set [1] lay within 0 to 80%. Besides, the mortality at 50 µg/cm2 in data set [2] and in data set [4] was 50 to 100% throughout. In data set [3], the “YFM % Control (or Mortality) rating” value was “A (80-100)”.
